“Also recorded” adds a separate entry of the source.
Tests used:
[1] = Rheometry: elastic modulus (G′) of pooled induced sputum from healthy subjects; design: species or system human; conditions: for effect on elastic modulus G′ (in words): 1 mM (FIG. 1)
Method: A rheometer was employed to determine the effect of the compounds disclosed herein on the elastic modulus (G′) of sputum sample from human subjects. The terms “elastic modulus,” “G′,” and the like refer to the elastic modulus as known in the art. Inhalation of 3% saline facilitates mucus expectoration (“induced sputum”) in human subjects, including in healthy subjects without lung disease. A typical sputum induction yields 3-5 mL of sputum, and induced sputum samples can be pooled from several donors in order to provide as much as 20 mL with for any given set of experiments. The rheometer can use 1 mL per assay. Rheological measurements can be made, e.g., with a AR2000 cone-and-plate rheometer (TA Instruments), as known in the art. Patients with cystic fibrosis (CF) are able to spontaneously expectorate sputum samples. […] We typically add the test compound to induced sputum at a 10% v/v, and we calculate effect of the test compound by measuring G′ every 2 minutes for periods up to 20 minutes. Because oxidation can cause baseline drift, we keep the experiment under nitrogen to improve signal to noise ratios. We custom modified a cone and plate rheometer to permit this kind of control in our rheometry experiments. Another protocol element that we use to optimize signal to noise is the addition of protease inhibitors to CF sputum to inhibit protease digestion of mucin. As depicted in FIG. 1, the elastic modulus (G′) of pooled induced sputum from five healthy subjects was determined as a function of time in the presence of 1 mM PBS (phosphate buffered saline), NAC (N-acetylcysteine), Cmpd 1, Cmpd 29, Glc-NAc, and Gal-NAc.

[2] = Rheometry: elastic modulus (G′) of sputum from cystic fibrosis (CF) patients; design: species or system human; conditions: for effect on G′ of CF sputum: sputum pooled from three CF patients (FIG. 3); for mucolytic effect: change in elastic modulus G′ (%-change from baseline): twelve-minute test period (FIG. 5A); for mucolytic effect on elastic modulus G′ over 12-minute test period: CF sputum n=5 donors (FIG. 7A); for mucolysis: onset and endpoint (12-minutes), change in G′: single sputum sample from a CF patient (FIG. 6)
Method: (§1) A rheometer was employed to determine the effect of the compounds disclosed herein on the elastic modulus (G′) of sputum sample from human subjects. The terms “elastic modulus,” “G′,” and the like refer to the elastic modulus as known in the art. Inhalation of 3% saline facilitates mucus expectoration (“induced sputum”) in human subjects, including in healthy subjects without lung disease. A typical sputum induction yields 3-5 mL of sputum, and induced sputum samples can be pooled from several donors in order to provide as much as 20 mL with for any given set of experiments. The rheometer can use 1 mL per assay. Rheological measurements can be made, e.g., with a AR2000 cone-and-plate rheometer (TA Instruments), as known in the art.
(§2) Patients with cystic fibrosis (CF) are able to spontaneously expectorate sputum samples. […] We typically add the test compound to induced sputum at a 10% v/v, and we calculate effect of the test compound by measuring G′ every 2 minutes for periods up to 20 minutes. Because oxidation can cause baseline drift, we keep the experiment under nitrogen to improve signal to noise ratios. We custom modified a cone and plate rheometer to permit this kind of control in our rheometry experiments. Another protocol element that we use to optimize signal to noise is the addition of protease inhibitors to CF sputum to inhibit protease digestion of mucin. […]
A series of time courses of the change in baseline G′ (%-change from baseline) of sputum samples at 10 mM concentration of MDG and Cmpds 1-5 is depicted in FIG. 6. Each datum in the figure was obtained from a single sputum sample from a patient with cystic fibrosis. […] Moreover, the length of the chain leading to the thiol is important; compare Cmpd 2 (C5 alkylene) vs. Cmpd 3 (C2 alkylene).
A time course of the change in baseline G′ (%-change from baseline) at 10 mM concentration of thiosaccharide is depicted in FIG. 7A. The drugs compared include an unmodified sugar (MDG), Glutathione (GSH, a natural endogenous reducing agent), N-acetyl cysteine (NAC), Cmpd 1 and Cmpd 2.

[3] = Rheometry: disulfide dimer study, elastic modulus (G′) of sputum (source not stated); design: species or system human; conditions: 10 mM (FIG. 2)
Method: as §1, §2

[4] = Oxidation-reduction potential (ORP) measurement; assay type: physicochemical; conditions: solutions (1 mM); for Reducing capacity (ORP): ORP probe; for reducing properties (in words): compared to parent sugar (PS) control
Method: An INLAB® Redox Micro ORP probe (Mettler Toledo) was employed, which utilizes a small platinum ring indicator electrode and a 3M KCL reference electrolyte. ORP values were determined for thiosaccharides, NAC and glutathione.

[5] = cited from earlier work
[6] = 61 mM, CF sputum n=5 donors, 12 minutes (FIG. 5C)

| Reducing capacity (ORP) [4] | reducing properties (in words) [4] | Compound | mucolytic effect: change in elastic modulus G′ (%-change from baseline) ([2]; 61 mM, CF sputum n=5 donors) | mucolytic effect on elastic modulus G′ over 12-minute test period ([2]; 10 mM) | mucolysis: onset and endpoint (12-minutes), change in G′ ([2]; 10 mM) | other results |
| --- | --- | --- | --- | --- | --- | --- |
| 99 mV | relatively strong reducing capabilities | CO[C@H]1OC(CS)[C@H](O)C(O)C1O (stereo partly drawn) [Cmpd 1, methyl 6-deoxy-6-thio-α-D-galactopyranoside] | decrease the elastic modulus (G′) | – | – | decrease in elastic modulus G′ ([1]; 1 mM, during the time course of the experiment (FIG. 1)): ~30%; effect on G′ of CF sputum ([2]; 10 mM): larger than the effect in healthy induced sputum; onset of action ([2]; 61 mM, CF sputum): significantly faster onset of action relative to either parent sugar MDG or NAC; average mucolytic effect at two minutes ([2]; 61 mM, CF sputum n=5 donors, 2 minutes (FIG. 5B)): significantly larger than observed for NAC; also recorded: much larger mucolytic effects than NAC; mucolytic effect at 12 minutes [2, 6]: similar; decrease in elastic modulus G′ of individual sputum samples from CF patients ([2]; individual samples from three CF patients (FIGS. 4A-4D)): ca. 50%; efficacy in reducing elastic modulus G′ (comparison) [3]: more effective in reducing elastic modulus G′ than either the disulfide dimer of Cmpd 1 or Cmpd 6 |
| −15 mV | very strong reducing activity | OCC1O[C@@H](OCCCCCS)C(O)[C@@H](O)[C@H]1O (stereo partly drawn) [Cmpd 2, 5-Thiolpentyl β-D-galactopyranoside] | – | largest effect | affords a better mucolytic than mannose (Cmpd 5) or glucose (Cmpd 4) | mucolytic effect at two minutes ([2]; 10 mM, CF sputum n=5 donors, 2 minutes (FIG. 7B)): much larger mucolytic effects than NAC; mucolytic effect at 12 minutes ([2]; 10 mM, CF sputum n=5 donors, 12 minutes (FIG. 7C)): significantly greater than observed for NAC; also recorded: significantly greater than for Cmpd 1; also recorded: much larger mucolytic effects than NAC; also recorded: significantly greater than that of Cmpd 1 |
| – | – | OCC1O[C@H](OCCCCCS)C(O)[C@@H](O)[C@@H]1O (stereo partly drawn) [Cmpd 4] | – | – | a galactose moiety (i.e., Cmpd 2) affords a better mucolytic than mannose (Cmpd 5) or glucose (Cmpd 4) | – |
| – | – | OCC1O[C@@H](OCCCCCS)C(O)[C@@H](O)[C@@H]1O (stereo partly drawn) [Cmpd 5] | – | – | a galactose moiety (i.e., Cmpd 2) affords a better mucolytic than mannose (Cmpd 5) or glucose (Cmpd 4) | – |
| – | – | CO[C@H]1OC(CO)[C@H](S)[C@H](O)C1O (stereo partly drawn) [Cmpd 29] | – | – | – | effect on elastic modulus G′ (in words) [1]: approximately half of the decrease in G′ observed with Cmpd 1 |
| 140 mV | did not have strong reducing properties | N[C@@H](CCC(=O)N[C@@H](CS)C(=O)NCC(=O)O)C(=O)O [GSH, Glutathione] | – | ineffective as mucolytics | – | – |
| 176 mV | – | CO[C@H]1O[C@H](CO)[C@H](O)[C@H](O)[C@H]1O [MDG, methyl α-D-galactopyranoside, reference compound] | no mucolytic effect | ineffective as mucolytics | – | effect on G′ of CF sputum ([2]; 10 mM): ineffective in decreasing G′ of CF sputum |
| 121 mV | did not have strong reducing properties | CC(=O)N[C@@H](CS)C(=O)O [NAC, N-Acetylcysteine, reference compound] | decrease the elastic modulus (G′) | no better than control solutions | – | effect on elastic modulus G′ (in words) [1]: not effective in decreasing G′; mucolytic effect at 12 minutes [2, 6]: similar; pKa [5]: 2.2 |
